ChEMBL document CHEMBL1141794, “Alkamides from the leaves of Zanthoxylum syncarpum” (J Nat Prod, 2005)
The source made the active and inactive calls. The rule behind the calls is not given here.

Tests used:
Plasmodium falciparum [1] = conditions: W2
Description: (§1) Antiplasmodial activity against chloroquine-resistant Plasmodium falciparum W2 after 48 hrs

Plasmodium falciparum [2] = conditions: D6
Description: (§2) Antiplasmodial activity against chloroquine-sensitive Plasmodium falciparum D6 after 48 hrs

Plasmodium falciparum [3] = assay: microbe, parasite or virus in culture; conditions: W2, 48 h
Description: as §1

Plasmodium falciparum [4] = assay: microbe, parasite or virus in culture; conditions: D6, 48 h
Description: as §2

SMILES	Activity (Plasmodium falciparum [1])	Activity (Plasmodium falciparum [2])	IC50 (Plasmodium falciparum [3]) [nM]	IC50 (Plasmodium falciparum [4]) [nM]
COc1ccc(C(CNC(=O)/C=C/c2ccccc2)OC(C)=O)cc1OC (stereo not drawn)	inactive	inactive	–	–
COc1ccc([C@H](CNC(=O)/C=C/c2ccccc2)C(=O)/C=C/c2ccccc2)cc1OC	–	–	6100	4200
C[C@@H]1CC[C@H]2[C@@H](C)C(=O)O[C@@H]3O[C@@]4(C)CC[C@@H]1[C@]32OO4 [ARTEMISININ]	–	–	30	40
COc1ccc(C(O)CNC(=O)/C=C/c2ccccc2)cc1OC (stereo not drawn)	inactive	inactive	–	–
